From the NIST ThermoML archive (doi:10.1016/j.fluid.2017.04.006)
Numbers after ± are expanded uncertainties.

Columns and labels:
[1] = Molar enthalpy of transition or fusion; conditions: DSC
[2] = DSC
[3] = xn = mol fraction of the nth substance listed; conditions: 298.15 K, 97.59 kPa, Liquid, Vibrating tube method

In the case of `CS(=O)(=O)[O-].[Na+]` [sodium methanesulfonate], the “Molar enthalpy of transition or fusion” value ([1]; Crystal) is reported as 5.75 ± 0.129 kcal/mol and the Triple point temperature ([2]; Crystal) is reported as 625.95 ± 0.8 K.
In the case of `CS(=O)(=O)[O-].[Na+]` [sodium methanesulfonate] + O, the mass density ([3]; x1 = 0.008) is reported as 1025 ± 5.6 kg/m3, the mass density ([3]; x1 = 0.0188) is reported as 1059.9 ± 5.9 kg/m3 and the mass density ([3]; x1 = 0.0358) is reported as 1110.4 ± 6.2 kg/m3. The mass density ([3]; x1 = 0.0438) was 1132.7 ± 6.4 kg/m3, the mass density ([3]; x1 = 0.0621) was 1179.8 ± 6.6 kg/m3 and the mass density ([3]; x1 = 0.0743) was 1209.3 ± 6.8 kg/m3. It also gave a mass density ([3]; x1 = 0.0952) of 1255.7 ± 7 kg/m3, a mass density ([3]; x1 = 0.1087) of 1283.5 ± 7.1 kg/m3 and a mass density ([3]; x1 = 0.1247) of 1313.8 ± 7.2 kg/m3.
For `CS(=O)(=O)[O-].[NH4+]` [ammonium methanesulfonate] + O, the mass density ([3]; x1 = 0.0085) was 1014.9 ± 5.5 kg/m3, the mass density ([3]; x1 = 0.0178) was 1033.1 ± 5.6 kg/m3 and the mass density ([3]; x1 = 0.0275) was 1050.8 ± 5.7 kg/m3. The mass density ([3]; x1 = 0.0381) was 1068.7 ± 5.8 kg/m3, the mass density ([3]; x1 = 0.051) was 1088.7 ± 5.8 kg/m3 and the mass density ([3]; x1 = 0.0648) was 1108.4 ± 5.9 kg/m3. For the same compound, the mass density ([3]; x1 = 0.0951) was 1146.2 ± 5.9 kg/m3, the mass density ([3]; x1 = 0.1144) was 1166.9 ± 5.9 kg/m3 and the mass density ([3]; x1 = 0.1387) was 1190.3 ± 5.8 kg/m3.
With `CS(=O)(=O)[O-].[NH4+]` [ammonium methanesulfonate] the “Molar enthalpy of transition or fusion” value ([1]; Crystal 1) was 2.03 ± 0.12 kcal/mol, the “Molar enthalpy of transition or fusion” value ([1]; Crystal 2) was 2.32 ± 0.0717 kcal/mol and the Triple point temperature ([2]; Crystal 1) was 470.05 ± 1.8 K. It also gave a Triple point temperature ([2]; Crystal 2) of 463.05 ± 1.2 K.
